Test results as given in PubChem BioAssay (NCI).
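Following 48 hours of exposure in 96-well plates, responses at five concentrations were used to interpolate endpoints linearly. Definition used: TGI = concentration required for complete inhibition of growth.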 *1 amine or outer side, *2 acyl side, *3 side chain or, on linkers, in order; H or OH if unused. Where a SMILES comes first, the peptide text is derived from it. Bridges are numbered along the chain shown (N, C = ends). Roman numbers before positions name the chains, in order. [ ]: non-standard residue; d: D form. ξ: configuration not given here. X54 = N=C(N)NCCC[C@@H](NC(=N)CCCCCCC(=N)N[C@H](CCCNC(=N)N)C(=O)[*:2])C(=O)[*:1]; dIgl = N[C@@H](C(=O)O)C1Cc2ccccc2C1; Hyp = O=C(O)[C@@H]1C[C@@H](O)CN1; ξIgl = NC(C(=O)O)C1Cc2ccccc2C1; ξOic = O=C(O)C1CC2CCCCC2N1; ξR = N=C(N)NCCCC(N)C(=O)O; ξP = O=C(O)C1CCCN1; ξS = NC(CO)C(=O)O

Key:
Assay in all cases: NCI anticancer screen, dose series, 48 h
BT-549 breast = test system: BT-549 breast
CCRF-CEM leukemia = test system: CCRF-CEM leukemia
HT29 colon = test system: HT29 colon
M14 melanoma = test system: M14 melanoma
MDA-MB-231 breast = test system: MDA-MB-231 breast
MOLT-4 leukemia = test system: MOLT-4 leukemia
OVCAR-3 ovarian = test system: OVCAR-3 ovarian
SF-295 CNS = test system: SF-295 CNS
SK-MEL-5 melanoma = test system: SK-MEL-5 melanoma
UO-31 renal = test system: UO-31 renal

Compound	TGI (BT-549 breast) [µM]	TGI (CCRF-CEM leukemia) [µM]	TGI (HT29 colon) [µM]	TGI (M14 melanoma) [µM]	TGI (MDA-MB-231 breast) [µM]	TGI (MOLT-4 leukemia) [µM]	TGI (OVCAR-3 ovarian) [µM]	TGI (SF-295 CNS) [µM]	TGI (SK-MEL-5 melanoma) [µM]	TGI (UO-31 renal) [µM]
O=C1c2cc(I)ccc2N2CCN=C2N1Cc1ccccc1	> 100	> 100	> 100	> 100	> 100	> 100	> 100	> 100	> 100	> 100
CCC(=O)Nc1cccc(N=Cc2ccc(OC(=O)/C=C\c3ccccc3)cc2)c1	> 75	> 75	> 75	> 75	> 75	> 75	> 75	> 75	> 75	> 75
Cc1cc2nc3c(C#N)c4c(c(Nc5ccc(F)cc5)n3c2cc1C)CCC4	> 100	> 100	> 100	> 100	> 100	> 100	> 100	> 100	> 100	–
CN1CCN(C(=O)CCC(=O)Nc2cc3c(c4ccccc24)-c2ccc4ccccc4c2C3)CC1	2.84	–	3.23	2.97	2.93	–	3.22	3.4	3	3.28
N#Cc1c(N)oc(-c2ccc([N+](=O)[O-])cc2)c1C#N	–	> 100	> 100	> 100	64.3	–	–	55.3	36.4	42.4
COc1ccccc1NC(=S)N=Nc1c(O)[nH]c2ccccc12	–	> 100	> 100	> 100	> 100	> 100	> 100	> 100	> 100	> 100
CCOC(=O)/C=C/C(=O)O/C=C/[N+](=O)[O-]	–	> 100	> 100	> 100	> 100	> 100	> 100	> 100	> 100	> 100
O=P(O)(O)c1ccc(-c2ccc(I)cc2)cc1	> 100	> 100	> 100	> 100	> 100	> 100	–	–	> 100	> 100
CC(C)(C)COC(=O)C(C)(C)NC(=O)C(CC(=O)OCc1ccccc1)NC(=O)OCc1ccccc1 (centres undefined)	–	> 100	87.9	> 100	> 100	> 100	> 100	> 100	29.1	70.7
Cc1cc(=O)oc2cc(OCCCOc3ccc4c(C)cc(=O)oc4c3)ccc12	–	> 100	> 100	> 100	–	> 100	> 100	> 100	> 100	> 100
CC(C)=CC1C(C(=O)Oc2ccccc2C(C)C)C1(C)C (centres undefined)	> 100	59.6	36.9	> 100	52	–	34.6	33.8	33.9	34.6
O=C(CN1CCCC1=O)CS(=O)(=O)c1ccccc1	> 100	> 100	> 100	> 100	–	> 100	> 100	> 100	> 100	> 100
Nn1c(Nc2ccc(S(N)(=O)=O)cc2)nnc(/C=C/c2c(O)ccc3ccccc23)c1=O	40.4	18.8	42.6	69.8	–	0.805	42.8	96.8	28.7	57.3
Cc1ccc(Cc2cc(N3CCN(c4cccc(Cl)c4)CC3)nnc2C)cc1	> 100	–	81.2	> 100	> 100	–	> 100	> 100	41.6	> 100
COc1ccc2nc3c([N+](=O)[O-])ccc(NCCN(C)C)c3c(N)c2c1	–	0.531	1.73	3.03	1.27	2.46	3.31	3.62	3.45	2.87
Cc1nnc(N)nc1/C=C\c1ccc(Cl)cc1Cl	> 100	86.4	41.7	85.3	> 100	> 100	–	53.8	81.5	> 100
Cn1c(-c2ccc(-c3cc(-c4cccs4)c(-c4cccs4)n3C)cc2)cc(-c2cccs2)c1-c1cccs1	–	> 100	> 100	> 100	> 100	> 100	–	> 100	> 100	> 100
COC(=O)[C@H](CC(C)C)NC(=O)[C@H](Cc1ccccc1)N1CC2C=CC1C2 (some centres undefined)	–	> 100	> 100	> 100	–	> 100	> 100	> 100	> 100	> 100
COC(=O)CN(CC(=O)NCCCBr)C1CCCCC1N(CC(=O)OC)CC(=O)OC (centres undefined)	> 100	> 100	> 100	–	> 100	> 100	> 100	> 100	> 100	> 100
O=C1C=C(Nc2ccccc2C(=O)CC(=O)C(=O)Nc2ccc(Cl)cc2)c2ccccc2C1=O	–	33.1	> 100	24.1	–	> 38.5	9.29	–	15.4	65.6
Cc1ccccc1NC(=O)Cc1csc(N/N=C2\NC(=O)/C(=C/c3cccc([N+](=O)[O-])c3)S2)n1	–	–	> 100	31.3	57.3	> 100	52.3	41.8	64.8	25.8
CC#C[C@]1(O)CCC2[C@@H]3CCC4=CC(=O)CCC4=C3[C@@H](c3ccc(N(C)C)cc3)C[C@@]21C (some centres undefined)	50.7	37.5	28.7	32.1	35.4	–	23.5	30.1	24.6	28.2

Compound	TGI (BT-549 breast) [µM]	TGI (CCRF-CEM leukemia) [µM]	TGI (HT29 colon) [µM]	TGI (M14 melanoma) [µM]	TGI (MDA-MB-231 breast) [µM]	TGI (MOLT-4 leukemia) [µM]	TGI (OVCAR-3 ovarian) [µM]	TGI (SF-295 CNS) [µM]	TGI (SK-MEL-5 melanoma) [µM]	TGI (UO-31 renal) [µM]
N=C(N)NCCCC(NC(=O)C1CC2CCCCC2N1C(=O)[C@H](NC(=O)C(CO)NC(=O)C(NC(=O)CNC(=O)[C@@H]1C[C@@H](O)CN1C(=O)C1CCCN1C(=O)C(CCCNC(=N)N)NC(=O)[C@@H](CCCNC(=N)N)NC(=N)CCCCCCC(=N)N[C@H](CCCNC(=N)N)C(=O)NC(CCCNC(=N)N)C(=O)N1CCCC1C(=O)N1C[C@H](O)C[C@H]1C(=O)NCC(=O)NC(C(=O)NC(CO)C(=O)N[C@@H](C(=O)N1C(C(=O)NC(CCCNC(=N)N)C(=O)O)CC2CCCCC21)C1Cc2ccccc2C1)C1Cc2ccccc2C1)C1Cc2ccccc2C1)C1Cc2ccccc2C1)C(=O)O (some centres undefined) (I: [ξR][ξP][Hyp]G[ξIgl][ξS][dIgl][ξOic][ξR]-OH / II: [ξR][ξP][Hyp]G[ξIgl][ξS][dIgl][ξOic][ξR]-OH; linker I:N-II:N via X54)	–	8.81	2.12	7.23	3.49	2.89	3.4	4.3	3.62	> 10
CC1=NN(C(=O)Cc2ccccc2)C(=O)/C1=C\c1ccc([N+](=O)[O-])cc1	–	> 100	> 100	> 100	–	> 100	> 100	> 100	> 100	> 100
CC(C)(C)N/N=C(\C(=O)Nc1cccc(Cl)c1)C1C(=O)Nc2ccccc2S1=O (centres undefined)	–	> 100	> 100	> 100	–	> 100	> 100	> 100	> 100	> 100
CCOP(=O)(CCCC(O)CNc1nc(N)nc(Cl)c1N=Nc1ccc(Cl)cc1)OCC (centres undefined)	20.8	9.92	23.4	–	8.6	11.8	18.4	21.7	15.5	16.1
COc1cccc2c1C(=O)c1c(O)c3c(c(O)c1C2=O)C[C@@](O)(C(C)=O)CC3S(=O)(=O)O (some centres undefined)	–	> 100	> 100	> 100	–	> 100	> 100	> 100	> 100	> 100
Clc1cc(-c2ccccc2)nc(Nc2nc3ccccc3[nH]2)n1	52.9	27.6	45.6	63	33.9	> 100	–	> 100	> 100	> 100
CN(c1ccccc1)S(=O)(=O)c1ccc([N+](=O)[O-])cc1	> 100	–	> 100	> 100	> 100	–	> 100	> 100	–	> 100
COc1ccc2c(c1)Oc1cc(O)ccc1[C@H]2c1ccccc1C(=O)NC(C)c1ccccc1 (some centres undefined)	–	72.7	41.5	26.1	–	64.8	29.4	25.9	29.2	25.5
Cc1c(C(=O)O)n2c(=S)[nH]nc2c2ccccc12	–	> 100	> 100	> 100	> 100	> 100	> 100	> 100	> 100	> 100
O=C(Cc1nc2ccc(C(=O)c3ccccc3)cc2[nH]c1=O)C(=O)Nc1nc2ccccc2[nH]1	–	> 100	> 100	> 100	–	> 100	> 100	> 100	> 100	> 100
Fc1ccc(-c2sc(-c3ccsc3)cc2Cc2ccsc2)cc1	–	> 10	> 10	> 10	> 10	> 10	–	> 10	> 10	–
CC(=O)OCC1OC(N2C(=O)NC(=O)C3C=C4CCCCC4=CC32)CC1OC(C)=O (centres undefined)	> 100	–	> 100	> 100	> 100	> 100	> 100	> 100	–	> 100
COc1cc(C2c3cc4c(cc3OC(NNC(N)=O)C2C)OCO4)cc(OC)c1OC (centres undefined)	> 100	0.507	> 100	> 44.9	7.25	> 100	–	0.425	22.8	> 72.6
Cn1cnc(N2CCCC2)c(C#N)c1=S	–	> 100	> 100	> 100	> 100	> 100	> 100	> 100	> 100	70.3
CCn1c2nc(=O)n(CCCCCCCCSC(c3ccccc3)(c3ccccc3)c3ccccc3)c(=O)c-2nc2ccccc21	–	> 100	18.1	31.6	> 100	24.6	> 100	> 100	22.9	> 100
CCC12CCCN(Cc3ccccc3)C1c1c(n(C)c3ccccc13)C(CO)C2 (centres undefined)	–	> 257	72.2	–	–	149	90.7	64.7	76.9	–
COC(C/C(=C/CO[Si](C(C)C)(C(C)C)C(C)C)C(=O)N(C(=O)OC(C)(C)C)c1ccccc1I)OC	–	–	> 100	> 100	–	> 100	> 100	41	> 100	> 100
O=c1[nH]c2ccccc2c(O)c1Cc1ccccc1	> 100	> 100	> 100	–	> 100	> 100	> 100	> 100	> 100	–
CCc1cc(C)cc2[n+]1CC=C2	–	–	75.2	80.7	–	–	–	> 100	–	68.9
COc1cccc2c1NC(=O)Cc1c-2[nH]c2ccccc12	–	> 100	> 100	> 100	> 100	> 100	> 100	> 100	> 100	> 100
COc1cc(C2S/C(=C/c3ccccc3)C(=O)N2Cc2ccccc2)cc(OC)c1OC (centres undefined)	> 100	87.2	> 100	> 100	> 100	> 100	–	> 100	> 100	> 100
Nc1nc(NCCOCP(=O)(O)O)c([N+](=O)[O-])c(=O)[nH]1	–	> 100	> 100	> 100	–	> 100	> 100	> 100	–	> 100
